{"source": "ChEMBL document CHEMBL1165930", "about": "“The anticancer activity of 3- and 10-bromofascaplysins is mediated by caspase-8, -9, -3-dependent apoptosis” (Bioorg Med Chem, 2010)", "key": {"[1]": {"assay": "Inhibition of EGF-stimulated colony formation in mouse JB6 Cl41 cells by anchorage-independent soft agar assay", "type": "functional"}, "HeLa [2]": {"tested_on": "HeLa", "assay": "Anticancer activity in human HeLa cells assessed as inhibition of colony formation by anchorage-independent soft agar assay", "type": "functional"}, "HL-60 [3]": {"tested_on": "HL-60", "assay": "Anticancer activity in human HL60 cells assessed as inhibition of colony formation by anchorage-independent soft agar assay", "type": "functional"}, "SK-MEL-28 [4]": {"tested_on": "SK-MEL-28", "assay": "Anticancer activity in human SK-MEL-28 cells assessed as inhibition of colony formation by anchorage-independent soft agar assay", "type": "functional"}, "THP-1 [5]": {"tested_on": "THP-1", "assay": "Anticancer activity in human THP1 cells assessed as inhibition of colony formation by anchorage-independent soft agar assay", "type": "functional"}, "[6]": {"assay": "Inhibition of EGF-stimulated viability of mouse JB6 Cl41 cells after 22 hrs by MTS assay", "type": "functional, cell-based", "details": "JB6 Cl41, 22 h"}, "HL-60 [7]": {"tested_on": "HL-60", "assay": "Cytotoxicity against human HL60 cells after 22 hrs by MTS assay", "type": "functional, cell-based", "details": "HL-60, 22 h"}, "THP-1 [8]": {"tested_on": "THP-1", "assay": "Cytotoxicity against human THP1 cells after 22 hrs by MTS assay", "type": "functional, cell-based", "details": "THP-1, 22 h"}, "HeLa [9]": {"tested_on": "HeLa", "assay": "Cytotoxicity against human HeLa cells after 22 hrs by MTS assay", "type": "functional, cell-based"}, "MDA-MB-231": {"tested_on": "MDA-MB-231", "assay": "Cytotoxicity against human MDA-MB-231 cells after 22 hrs by MTS assay", "type": "functional, cell-based", "details": "MDA-MB-231, 22 h"}, "DLD-1": {"tested_on": "DLD-1", "assay": "Cytotoxicity against human DLD1 cells after 22 hrs by MTS assay", "type": "functional, cell-based", "details": "DLD-1, 22 h"}, "[10]": {"assay": "Cytotoxicity against human SNUC4 cells after 22 hrs by MTS assay", "type": "functional, cell-based", "details": "SNU-C4, 22 h"}, "SK-MEL-28 [11]": {"tested_on": "SK-MEL-28", "assay": "Cytotoxicity against human SK-MEL-28 cells after 22 hrs by MTS assay", "type": "functional, cell-based", "details": "SK-MEL-28, 22 h"}, "THP-1 [12]": {"tested_on": "THP-1", "assay": "Induction of apoptosis in human THP1 cells after 24 hrs by FITC-conjugated annexin V and propidium iodide staining-based flow cytometry", "type": "functional, cell-based"}, "THP-1 [13]": {"tested_on": "THP-1", "assay": "Induction of apoptosis in human THP1 cells assessed as viable cells at 500 nM after 24 hrs by FITC-conjugated annexin V and propidium iodide staining-based flow cytometry", "type": "functional", "details": "THP-1, 24 h, read-out: Activity"}, "THP-1 [14]": {"tested_on": "THP-1", "assay": "Induction of apoptosis in human THP1 cells assessed as early apoptotic cells at 500 nM after 24 hrs by FITC-conjugated annexin V and propidium iodide staining-based flow cytometry", "type": "functional"}, "THP-1 [15]": {"tested_on": "THP-1", "assay": "Induction of apoptosis in human THP1 cells assessed as late apoptotic cells at 500 nM after 24 hrs by FITC-conjugated annexin V and propidium iodide staining-based flow cytometry", "type": "functional"}, "THP-1 [16]": {"tested_on": "THP-1", "assay": "Induction of apoptosis in human THP1 cells assessed as non-viable necrotic cells at 500 nM after 24 hrs by FITC-conjugated annexin V and propidium iodide staining-based flow cytometry", "type": "functional"}, "THP-1 [17]": {"tested_on": "THP-1", "assay": "Induction of apoptosis in human THP1 cells assessed as viable cells at 1000 nM after 24 hrs by FITC-conjugated annexin V and propidium iodide staining-based flow cytometry", "type": "functional", "details": "THP-1, 24 h, read-out: Activity"}, "THP-1 [18]": {"tested_on": "THP-1", "assay": "Induction of apoptosis in human THP1 cells assessed as early apoptotic cells at 1000 nM after 24 hrs by FITC-conjugated annexin V and propidium iodide staining-based flow cytometry", "type": "functional"}, "THP-1 [19]": {"tested_on": "THP-1", "assay": "Induction of apoptosis in human THP1 cells assessed as late apoptotic cells at 1000 nM after 24 hrs by FITC-conjugated annexin V and propidium iodide staining-based flow cytometry", "type": "functional"}, "THP-1 [20]": {"tested_on": "THP-1", "assay": "Induction of apoptosis in human THP1 cells assessed as non-viable necrotic cells at 1000 nM after 24 hrs by FITC-conjugated annexin V and propidium iodide staining-based flow cytometry", "type": "functional"}, "THP-1 [21]": {"tested_on": "THP-1", "assay": "Induction of apoptosis in human THP1 cells assessed as viable cells at 2000 nM after 24 hrs by FITC-conjugated annexin V and propidium iodide staining-based flow cytometry", "type": "functional", "details": "THP-1, 24 h, read-out: Activity"}, "THP-1 [22]": {"tested_on": "THP-1", "assay": "Induction of apoptosis in human THP1 cells assessed as early apoptotic cells at 2000 nM after 24 hrs by FITC-conjugated annexin V and propidium iodide staining-based flow cytometry", "type": "functional"}, "THP-1 [23]": {"tested_on": "THP-1", "assay": "Induction of apoptosis in human THP1 cells assessed as late apoptotic cells at 2000 nM after 24 hrs by FITC-conjugated annexin V and propidium iodide staining-based flow cytometry", "type": "functional"}, "THP-1 [24]": {"tested_on": "THP-1", "assay": "Induction of apoptosis in human THP1 cells assessed as non-viable necrotic cells at 2000 nM after 24 hrs by FITC-conjugated annexin V and propidium iodide staining-based flow cytometry", "type": "functional"}, "HL-60 [25]": {"tested_on": "HL-60", "assay": "Induction of apoptosis in human HL60 cells assessed as total apoptotic cells at 50 to 100 nM after 24 hrs by FITC-conjugated annexin V and propidium iodide staining-based flow cytometry", "type": "functional"}, "HL-60 [26]": {"tested_on": "HL-60", "assay": "Induction of apoptosis in human HL60 cells assessed as total apoptotic cells at 1000 nM after 24 hrs by FITC-conjugated annexin V and propidium iodide staining-based flow cytometry", "type": "functional"}, "HL-60 [27]": {"tested_on": "HL-60", "assay": "Induction of apoptosis in human HL60 cells assessed as early apoptotic cells at 50 nM after 24 hrs by FITC-conjugated annexin V and propidium iodide staining-based flow cytometry", "type": "functional"}, "HL-60 [28]": {"tested_on": "HL-60", "assay": "Induction of apoptosis in human HL60 cells assessed as early apoptotic cells at 250 nM after 24 hrs by FITC-conjugated annexin V and propidium iodide staining-based flow cytometry", "type": "functional"}, "HL-60 [29]": {"tested_on": "HL-60", "assay": "Induction of apoptosis in human HL60 cells assessed as early apoptotic cells at 500 to 1000 nM after 24 hrs by FITC-conjugated annexin V and propidium iodide staining-based flow cytometry", "type": "functional"}, "HL-60 [30]": {"tested_on": "HL-60", "assay": "Induction of apoptosis in human HL60 cells assessed as decrease in procaspase-8 level at 500 nM after 24 hrs by Western blot analysis", "type": "functional, cell-based"}}, "note": "Activity calls are given as the source filed them. No cut-off for these calls is given here.", "data": [{"smiles": "O=C1c2ccc(Br)cc2-[n+]2ccc3c([nH]c4ccccc43)c21.[Cl-]", "values": [{"measurement": "INCC50", "setting": "[1]", "result": 106.4, "unit": "nM"}, {"measurement": "INCC50", "setting": "HeLa [2]", "result": 108.1, "unit": "nM"}, {"measurement": "INCC50", "setting": "HL-60 [3]", "result": 103.5, "unit": "nM"}, {"measurement": "INCC50", "setting": "SK-MEL-28 [4]", "result": 162.9, "unit": "nM"}, {"measurement": "INCC50", "setting": "THP-1 [5]", "result": 59.7, "unit": "nM"}, {"measurement": "IC50", "setting": "[6]", "result": 284, "unit": "nM"}, {"measurement": "IC50", "setting": "HL-60 [7]", "result": 549, "unit": "nM"}, {"measurement": "IC50", "setting": "THP-1 [8]", "result": 521, "unit": "nM"}, {"measurement": "IC50", "setting": "HeLa [9]", "result": 337, "unit": "nM"}, {"measurement": "IC50", "setting": "MDA-MB-231", "result": 575, "unit": "nM"}, {"measurement": "IC50", "setting": "DLD-1", "result": 243, "unit": "nM"}, {"measurement": "IC50", "setting": "[10]", "result": 238, "unit": "nM"}, {"measurement": "IC50", "setting": "SK-MEL-28 [11]", "result": 785, "unit": "nM"}, {"measurement": "Activity", "setting": "THP-1 [12]", "result": "Dose-dependent effect"}, {"measurement": "viability at 0.5 µM", "setting": "THP-1 [13]", "result": 68.2, "unit": "%"}, {"measurement": "Activity", "setting": "THP-1 [14]", "result": 13, "unit": "%"}, {"measurement": "Activity", "setting": "THP-1 [15]", "result": 12.4, "unit": "%"}, {"measurement": "Activity", "setting": "THP-1 [16]", "result": 6.4, "unit": "%"}, {"measurement": "viability at 1 µM", "setting": "THP-1 [17]", "result": 40.9, "unit": "%"}, {"measurement": "Activity", "setting": "THP-1 [18]", "result": 17.9, "unit": "%"}, {"measurement": "Activity", "setting": "THP-1 [19]", "result": 23.2, "unit": "%"}, {"measurement": "Activity", "setting": "THP-1 [20]", "result": 18, "unit": "%"}, {"measurement": "viability at 2 µM", "setting": "THP-1 [21]", "result": 25.8, "unit": "%"}, {"measurement": "Activity", "setting": "THP-1 [22]", "result": 25.8, "unit": "%"}, {"measurement": "Activity", "setting": "THP-1 [23]", "result": 25.5, "unit": "%"}, {"measurement": "Activity", "setting": "THP-1 [24]", "result": 23.5, "unit": "%"}, {"measurement": "Activity", "setting": "HL-60 [25]", "result": 20, "unit": "%"}, {"measurement": "Activity", "setting": "HL-60 [26]", "result": 90, "unit": "%"}, {"measurement": "Activity", "setting": "HL-60 [27]", "result": 5, "unit": "%"}, {"measurement": "Activity", "setting": "HL-60 [28]", "result": 40, "unit": "%"}, {"measurement": "Activity", "setting": "HL-60 [29]", "result": 20, "unit": "%"}, {"measurement": "inhibition", "setting": "HL-60 [30]", "result": "Active"}]}]}
